# According to patent US9387257B2, “Lung cancer specific peptides for targeted drug delivery and molecular imaging” (Academia Sinica, priority 2014, dated 2016):
# Where no end group is shown, it is not given here.
# Experiments:
# [1] = Pharmacokinetic and biodistribution study in mice bearing H460 xenografts; format: in vivo, SCID mice; details: single i.v. dose 2 mg/kg
# Description: SCID mice bearing H460 lung cancer xenografts (˜300 mm^3) were injected in the tail vein with either free drug doxorubicin (FD), liposomal doxorubicin (LD), or targeting (HSP1, HSP2 or HSP4) LD at a single dose of 2 mg/kg. At 1 hr and 24 hr post-injection, blood samples were collected through submaxillary punctures before mice were anaesthetized and sacrificed (three mice in each group). Then the mice were perfused with 50 ml PBS through heart, xenograft tumors and organs (brain, lung, heart, liver, and kidney) were dissected, weighted, and homogenized to calculate amount of doxorubicin in tissues. Total doxorubicin was quantified by measuring fluorescence at λEx/Em=485/590 nm using a spectrofluorometer (SPECTRAMAX® M5, Molecular Devices).
# [2] = system: human lung cancer cell lines (H460, H661, H1993, H441, CL1-5, A549, H520, H1688); assay: Flow cytometry surface binding of FITC-conjugated peptides to lung cancer cell lines; format: cell-based; details: 20 μg/mL FITC-conjugated peptide, 4° C., 1 hour; large cell, adeno-, squamous cell and small cell carcinoma lines
# Description: (§1) The lung cancer cell lines or control cells were collected using enzyme-free cell dissociation buffer, and then were incubated with 20 μg/mL FITC-conjugated HSP1, 2, 4 or control peptide at 4° C. for 1 hour. After washing, cells were analyzed by flow cytometer.
# H460 cells [3] = assay: Uptake of targeting peptide-conjugated LSRB; format: cell-based, human; details: for uptake of LSRB: peptide-conjugated LSRB at high concentration / higher doses; for liposome internalization compared to non-targeting LSRB: peptide-conjugated liposomal SRB, time course, 37° C.
# Description: (§2) H460 and H1993 cells were grown on a 24-well plate to 90% confluency, and 20, 10, 5, 2.5, 1.25, 0.625 μM HSP1, 2, 4-liposomal sulforhodamine B (LSRB) or LSRB in complete culture medium was added. The cells were incubated at 37° C., at the following time periods: 10, 30 min, 1, 2, 4, 8, 16 and 24 hours. At the indicated time point, cells were washed with PBS, and non-internalized LSRB on the cell surface was removed by adding 0.1 M Glycine, pH 2.8 for 10 min. Cells were then lysed with 200 μl 1% Triton X-100. Uptake of LD at low concentration in H1993 cells was performed using same protocol. For extraction of SRB or doxorubicin, 300 μl IPA (0.75 N HCl in isopropanol) was added to the lysate and shaken for 30 min. After the lysate was centrifuged at 12,000 rpm for 5 min, the amount of uptakes were determined by measuring Excitation/Emission wavelengths of fluorescence at 520/570 nm for SRB and 485/590 nm for doxorubicin using, a spectrofluorometer (SPECTRAMAX® M5, Molecular Devices). The concentration of SRB and doxambicin were calculated by interpolation using a standard curve.
# H1993 cells = assay: Uptake of targeting peptide-conjugated LSRB; format: cell-based, human; details: peptide-conjugated liposomal SRB, time course, 37° C.
# Description: as §2
# [4] = system: H1993 adenocarcinoma cells; assay: Immunofluorescence staining (IFA) of FITC-labeled peptides; format: cell-based, human; details: 10 μg/mL FITC-labeled peptide, fixed H1993 cells
# Description: (§3) H460 and H1993 cells were seeded and grown to about 50% confluence on cover slips. After the cells had been fixed with 2% paraformaldehyde, they were incubated with 10 μg/mL FITC-labeled HSP1, 2, 4 or control peptides. Then the slides were counterstained with 4′,6-diamidino-2-phenylindole (DAPI), mounted and examined under a Leica universal fluorescent microscope. The images were merged using the MetaMorph Image Analysis Software.
# [5] = system: H460 large cell carcinoma cells; assay: as above; format: cell-based, human; details: 10 μg/mL FITC-labeled peptide, fixed H460 cells
# Description: as §3
# [6] = system: H460 human lung large cell carcinoma xenografts; assay: Ligand-targeted therapy, lung large cell carcinoma xenograft model; format: in vivo, SCID mice; details: large tumor ~500 mm^3; 2 mg/kg/injection i.v. twice a week
# Description: Female SCID mice 4-6 weeks of age were injected subcutaneously in the dorsolateral flank with human NSCLC cells. Mice with size-matched tumors (approximately 75 mm^3 for small tumor; 300 or 500 mm^3 for large tumor) were then randomly assigned to different treatment groups, and were injected intravenously with liposomal doxorubicin (LD), liposomal vinorelbine (LV), targeting peptide (HSP1, HSP2 or HSP4)-conjugated LD or LV, free doxorubicin (FD), free vinorelbine (FV) or equivalent volumes of saline. The dosages of drugs and administration time courses were described in figure legends depend on different experiment design. Mouse body weights and tumor sizes were measured twice a week. Tumor volumes were calculated according to this formula: length×(width)^2×0.52. Animal care was carried out in accordance with guidelines of Academia Sinica, Taipei, Taiwan. The protocol was approved by the Committee on the Ethics of Animal Experiments of Academia Sinica.
# H460 cells [7] = assay: Endocytosis assay (confocal microscopy); format: cell-based, human; details: peptide-conjugated LSRB; 4° C. vs 37° C.
# Description: H460 cells were incubated with HSP1, HSP2, HSP4-LSRB or LSRB for 10 min at 4° C. and 37° C. After being washed with PBS, the cells were fixed by 4% paraformaldehyde, blocked by 1% BSA, and then stained with WGA-ALEXA FLUOR® […] and DAPI for cell membrane and nucleus. All fluorescence images were obtained by confocal microscopy.
# [8] = system: human normal bronchial epithelial cell (NL20); assay: Flow cytometry surface binding of FITC-conjugated peptides to normal cells; format: cell-based; details: 20 μg/mL FITC-conjugated peptide, 4° C., 1 hour
# Description: as §1
# H460 cells [9] = assay: In vitro cytotoxicity assay of targeting peptide-conjugated LD (MTT); format: cell-based, human; details: for decrease of the half maximal inhibitory concentration (IC50) compared to LD: peptide-conjugated LD at optimal peptide ratio, H460 cells; for reduction in IC50 in vitro: peptide-mediated DDS, summary statement
# Description: H460 cells were seeded in 96-well plates (5000 cells/well) in complete culture media and were incubated overnight. Next day, cells were treated with varying concentration (0˜100 μM) of HSP1-LD, HSP2-LD, HSP4-LD or LD at 37° C. for 24 hours; After removal of the excess drug, the cells were washed once with PBS and continued to incubate with fresh culture medium for 48 h at 37° C. The cell viability was measured by adding 50 μl of MTT (Thiazolyl Blue Tetrazolium Bromide; Sigma-Aldrich) to each well of the plate. After 3.5 hours MTT incubation, 150 μl of Dimethyl sulfoxide (DMSO; Mallinckrodt Baker) was added to each well for 10 min, and the absorbance was determined with microplate reader (SPECTRAMAX® M5, Molecular Devices) at 540 nm.
# [10] = system: A549 adenocarcinoma orthotopic model; assay: Combination therapy in orthotopic lung cancer model; format: in vivo, SCID mice; details: HSP4-mediated combinatorial liposomes
# Description: SCID mice (6-week-old) were anesthetized with isofloruance mixed with oxygen and placed in the right decubitus position. The skin overlying the left chest wall in the mid-axillary line was prepared with alcohol, and the underlying, chest wall and intercostal spaces were visualized. […] After tumor injection, the mice were turned to left decubitus position and observed for 45 to 60 min until fully recovered.
# Luciferase-expressing cancer cells were imaged and quantified using IVIS200 system (Xenogen Corporation, Alameda, Calif.) at 10 minutes after i.p. injection of LUCWERIN™ (Caliper Life Sciences) before drug administration each time.
half-life in plasma compared to liposomal formulations [1],Molecule,surface binding of FITC-labeled peptide (FACS) [2],uptake of LSRB (H460 cells [3]),liposome internalization compared to non-targeting LSRB (H460 cells [3]),liposome internalization compared to non-targeting LSRB (H1993 cells),binding of FITC-labeled peptide in cell IFA [4],binding of FITC-labeled peptide in cell IFA [5],therapeutic efficacy of LD [6],binding versus internalization compared to HSP2 and HSP4 (H460 cells [7]),surface binding of FITC-labeled peptide (FACS) [8],decrease of the half maximal inhibitory concentration (IC50) compared to LD (H460 cells [9]),reduction in IC50 in vitro (H460 cells [9]),adverse effect (body weight loss) [10],intracellular delivery of LSRB (H460 cells [3]; peptide-conjugated LSRB at low LSRB concentrations)
much shorter half-life in plasma,"COc1cccc2c1C(=O)c1c(O)c3c(c(O)c1C2=O)C[C@@](O)(C(=O)CO)C[C@@H]3O[C@H]1C[C@H](N)[C@H](O)[C@H](C)O1 [FD, doxorubicin]",–,–,–,–,–,–,–,–,–,–,–,–,–
–,GAMHLPWHMGTL (also: FITC label) [HSP1],prominent binding,better uptake ability,enhanced liposome internalization,enhanced liposome internalization,can bind to a major group,can bind to a major group,significantly improved therapeutic efficacy,stronger ability at binding than internalization,not to human normal bronchial epithelial cell,12.5 fold,about 10 fold,–,–
–,KATEEQLKTVME (control peptide) [reference compound],–,–,–,–,cannot,cannot,–,–,–,–,–,–,–
–,"NNPWREMMYIEI [HSP4, NNPWREMMYIEI]",–,–,–,–,–,–,–,–,–,–,–,decreasing body weight loss,–
–,NPWEEQGYRYSM (also: FITC label) [HSP2],prominent binding,no difference from non-targeting LSRB,enhanced liposome internalization,enhanced liposome internalization,can bind to a major group,can bind to a major group,significantly improved therapeutic efficacy,–,not to human normal bronchial epithelial cell,13 fold,about 10 fold,–,prominent intracellular delivery
